Measured values taken from the supplement of paper PMC4862054.

What was measured:
Details in all cases: incubation time: 72 h
[1] = tested on: BT-474; test: normalised response (% of control), CellTox Green; higher = less cell death (100 = DMSO, 0 = benzethonium chloride kill control)
In short: (§1)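 Values are normalised signals, each belonging to one concentration of the series. Breast cancer cells (20 µl suspension) were seeded into 384-well plates with compound at 5 concentrations in 10-fold steps over a compound-specific 10,000-fold range and incubated 72 h. Readouts were CellTox Green fluorescence (485/520 nm), then CellTiter-Glo luminescence after 10 min at room temperature, with each plate set to 0.1 % DMSO as 100 and a positive kill control as 0.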

[2] = tested on: BT-549; test: as above
In short: as §1

[3] = tested on: CAL-120; test: as above
In short: as §1

[4] = tested on: CAL-148; test: as above
In short: as §1

[5] = tested on: CAL-51; test: as above
In short: as §1

[6] = tested on: CAL-85-1; test: as above
In short: as §1

[7] = tested on: DU-4475; test: as above
In short: as §1

[8] = tested on: HCC1143; test: as above
In short: as §1

[9] = tested on: HCC1599; test: as above
In short: as §1

[10] = tested on: HCC1937; test: as above
In short: as §1

[11] = tested on: HDQ-P1; test: as above
In short: as §1

[12] = tested on: Hs578T; test: as above
In short: as §1

[13] = tested on: MCF-10A; test: as above
In short: as §1

[14] = tested on: MDA-MB-231; test: as above
In short: as §1

[15] = tested on: MDA-MB-436; test: as above
In short: as §1

[16] = tested on: MDA-MB-453; test: as above
In short: as §1

[17] = tested on: MDA-MB-468; test: as above
In short: as §1

[18] = tested on: MFM-223; test: as above
In short: as §1

[19] = tested on: BT-474; test: normalised response (% of control), CellTiter-Glo; higher = more viable cells (100 = DMSO, 0 = benzethonium chloride kill control)
Protocol: (§2)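 DSRT, 72 h incubation, CellTox Green / CellTiter-Glo readout. Signal is normalised to DMSO and benzethonium chloride controls. Value is the normalised response at the highest dose.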

[20] = tested on: BT-549; test: as above
Protocol: as §2

[21] = tested on: CAL-120; test: as above
Protocol: as §2

[22] = tested on: CAL-148; test: as above
Protocol: as §2

[23] = tested on: CAL-51; test: as above
Protocol: as §2

[24] = tested on: CAL-85-1; test: as above
Protocol: as §2

[25] = tested on: DU-4475; test: as above
Protocol: as §2

[26] = tested on: HCC1143; test: as above
Protocol: as §2

[27] = tested on: HCC1599; test: as above
Protocol: as §2

[28] = tested on: HCC1937; test: as above
Protocol: as §2

[29] = tested on: HDQ-P1; test: as above
Protocol: as §2

[30] = tested on: Hs578T; test: as above
Protocol: as §2

[31] = tested on: MCF-10A; test: as above
Protocol: as §2

[32] = tested on: MDA-MB-231; test: as above
Protocol: as §2

[33] = tested on: MDA-MB-436; test: as above
Protocol: as §2

[34] = tested on: MDA-MB-453; test: as above
Protocol: as §2

[35] = tested on: MDA-MB-468; test: as above
Protocol: as §2

[36] = tested on: MFM-223; test: as above
Protocol: as §2

[37] = tested on: SK-BR-3; test: as above
Protocol: as §2

Row | SMILES | normalised response [1] [%] | normalised response [2] [%] | normalised response [3] [%] | normalised response [4] [%] | normalised response [5] [%] | normalised response [6] [%] | normalised response [7] [%] | normalised response [8] [%] | normalised response [9] [%] | normalised response [10] [%] | normalised response [11] [%] | normalised response [12] [%] | normalised response [13] [%] | normalised response [14] [%] | normalised response [15] [%] | normalised response [16] [%] | normalised response [17] [%] | normalised response [18] [%] | normalised response [19] [%] | normalised response [20] [%] | normalised response [21] [%] | normalised response [22] [%] | normalised response [23] [%] | normalised response [24] [%] | normalised response [25] [%] | normalised response [26] [%] | normalised response [27] [%] | normalised response [28] [%] | normalised response [29] [%] | normalised response [30] [%] | normalised response [31] [%] | normalised response [32] [%] | normalised response [33] [%] | normalised response [34] [%] | normalised response [35] [%] | normalised response [36] [%] | normalised response [37] [%]
1 | CC[C@H](CO)Nc1nc(NCc2ccccc2)c2ncn(C(C)C)c2n1 [Seliciclib] (10000 nM) | 100 | 91.5 | 97.2 | 95.6 | 99.4 | 62.7 | 105 | 84.5 | 110 | 105 | 106 | 84.9 | 108 | 108 | 91.4 | 108 | 154 | 68.6 | 82.1 | 80.1 | 92 | 117 | 78.7 | 83.9 | 97.7 | 96.3 | 95.9 | 92.4 | 84.4 | 96.4 | 95.9 | 81.1 | 79.9 | 132 | 87.1 | 89 | 86.2
2 | CN(Cc1cnc2nc(N)nc(N)c2n1)c1ccc(C(=O)N[C@@H](CCC(=O)O)C(=O)O)cc1 [Methotrexate] (50000 nM) | 93.8 | 103 | 102 | 105 | 114 | 64.1 | 99 |  | 101 | 106 | 112 | -70.6 | 103 | 92.3 | 42.9 | 65 | 77.6 | 103 | 23.6 | 92.2 | 21.7 | 107 | 68.2 | 49.6 | 92.3 | 84.4 | 52.4 | 31.5 | 53.7 | 19.5 | 105 | 29.1 | 77.1 | 96 | 100 | 101 | 72.5
3 | O=C(O)CNC(=O)c1c(O)c2ccccc2n(Cc2ccccc2)c1=O [IOX-2] (50000 nM) | 102 | 73.6 | 101 | 101 | 84.3 | 105 | 97.8 | 104 | 102 | 91.5 |  | 113 | 107 | 100 | 67 |  | 133 | 103 | 85.9 | 86.4 | 95.3 | 97.8 | 71.1 | 93.9 | 98.3 | 92.6 | 97.3 | 98.2 | 91.1 | 103 | 102 | 85.1 | 62.9 | 103 | 92.2 | 98.2 | 94
4 | CCn1c(C(=O)N(C2CC2)C2CC2)cc2c3c(ncn3C)c(Nc3cc(C)n(C)n3)nc21 (10000 nM) | 103 |  | 103 | 93 | 99.5 | 102 | 98.5 |  | 94 |  | 105 | 89.6 | 109 | 113 | 88.1 | 97.7 | 80.7 | 94.3 | 83.3 | 102 | 102 | 103 | 106 | 99.5 | 97.9 | 93.2 | 123 | 92.8 | 101 | 96 | 86.6 | 82.2 | 93.6 | 97 | 94.4 | 83.1 | 93.2
5 | C=CCN(/C=C1/C(=O)O[C@H](COC)[C@@]2(C)C1=C(O)C(=O)C1=C2[C@H](OC(C)=O)C[C@]2(C)C(=O)CC[C@@H]12)CC=C [Sonolisib] (10000 nM) | 99.8 | 104 | 97.4 |  | 90.6 | 61.7 | 107 | 117 | 113 | 81.7 | 108 | 111 | 108 | 106 | 98.2 | 101 |  | 103 | 87.1 | 82.2 | 102 | 124 | 82.1 | 103 | 96.5 | 91.8 | 102 | 90.4 | 72.1 | 95.7 | 88.4 | 87.3 | 101 | 84.8 | 86 | 106 | 93.9
6 | Cc1nc(C(=O)NCC(=O)O)c(O)c2ccc(Oc3ccccc3)cc12 [FG-4592] (10000 nM) | 98 | 94.7 | 107 | 89.3 | 105 | 78.6 | 97.7 | 118 | 99.9 | 72.6 | 114 |  | 111 | 95.7 | 93.9 | 95.2 | 125 | 104 | 94.5 | 92 | 102 | 113 | 97.7 | 101 | 97 | 98.5 | 92 | 100 | 92 | 109 | 107 | 96.1 | 98.8 | 97.4 | 110 | 103 | 101
7 | CC(C)(C)c1nc(-c2cccc(NS(=O)(=O)c3c(F)cccc3F)c2F)c(-c2ccnc(N)n2)s1 [Dabrafenib] (2500 nM) | 103 | 94.2 | 78.8 |  | 106 | 83.9 | 70.1 | 120 | 103 |  |  |  | 102 | 97.8 | 107 | 96.6 | 87 | 104 | 100 | 92.7 | 75.8 | 108 | 72.6 | 108 | 0.71 | 95 | 89.4 | 96.8 | 94 | 88 | 96 | 101 | 92.3 | 95.4 | 89.2 | 93.1 | 80.8
8 | CN[C@@H](C)C(=O)N[C@H]1CN(C(=O)CC(C)C)CC[C@H]2CC[C@@H](C(=O)NC(c3ccccc3)c3ccccc3)N2C1=O [AT-406] (10000 nM) | 89.4 | 83.8 | 41.2 | 66.9 | 83 | 0.8 | 95.4 | 108 | 97.5 | 84.8 |  | 92.7 | 112 | -35.9 | 85.5 | 93.2 | 57.3 | 103 | 16.4 | 64.9 | 61.1 | 91.2 | 90.8 | 41.9 | 97.9 | 85.5 | 97.5 | 88 | 84.5 | 94.1 | 106 | 14.2 | 93.2 | 58.1 | 65.1 | 102 | 89.6
9 | CN(C)C(=N)NC(=N)N [Metformin] (100000 nM) | 91.1 | 76.3 | 94.6 | 98.1 | 86.8 | 125 | 90.3 |  | 76 | 95.3 | 99.2 | 52.6 | 89.2 | 69.3 | 93.3 | 90.5 |  | 96.3 | 95.5 | 99.3 | 108 | 104 | 82.5 | 104 | 79.1 | 93 | 108 | 86.8 | 95.4 | 92.6 | 75.6 | 91.2 | 102 | 89.9 | 86.1 | 90.3 | 80
